Measurements reported in US9603829B2, “HSP90 inhibitors with modified toxicity” (THE REGENTS OF THE UNIVERSITY OF COLORADO, a body corporate, priority 2011, dated 2017).

Experiments:
[1] = molecular target: yeast Hsp90 ATPase (Saccharomyces cerevisiae, UniProt P02829); experiment: Purified recombinant yeast Hsp90 ATPase activity; type: biochemical; conditions: in the absence and presence of NQO1
Protocol: In vitro testing was performed to verify that 19-substitutions prevent GSH conjugation of benzoquinone ansamycins (BQAs). Referring to FIG. 6, reactions were performed in 50 mM potassium phosphate buffer, pH 7.4 containing 50 μM benzoquinone ansamycin in the absence (solid bars) and presence (hatched bars) of 5 mM GSH. At the indicated times (GM series, 15 min; DMAG series, 3 hr; AAG series, 16 hr) the reactions were stopped and BQA concentrations were determined by HPLC. […] The 19-substituted benzoquinone ansamycins were also tested in vitro for inhibition of Hsp90. Referring to FIG. 7, purified recombinant yeast Hsp90 ATPase activity was measured in reactions with 19-substituted BQAs in the absence and presence of NADPH quinone oxidoreductase 1 (NQO1). Results are expressed as percent of DMSO control (mean±SD n=3).
The parent BQA's inhibited purified Hsp90 much more readily in the presence of NQO1 to generate the hydroquinone and this could be blocked by the inhibitor ES936. […] This could be blocked by the NQO1 inhibitor ES936.

[2] = tested on: primary mouse hepatocytes; experiment: Hepatotoxicity in primary mouse hepatocytes (MTT); type: cell-based; conditions: 4 hr, confirmed by Trypan Blue and AST leakage
Protocol: The inventors next tested the effect of 19-substitution of BQAs on hepatotoxicity in isolated hepatocyte systems. Isolated primary mouse hepatocytes were grown on coated 96-well plates and exposed to BQAs for 4 h after which their survival was determined using the MTT assay.
As described above, a major obstacle in the development of BQA as drugs has been their ability to induce hepatotoxicity in preclinical studies. […] Toxicity was measured using MTT assay and confirmed using Trypan Blue and AST leakage. The data shown in FIG. 19 were generated using MTT analysis but similar readouts were obtained using either trypan blue exclusion or leakage of AST from hepatocytes.

[3] = tested on: Hsp90; experiment: Biomarkers of Hsp90 inhibition in MiaPaCa2 cells; type: cell-based, human; conditions: 5 μM, 24 hr (FIG. 16C)
Protocol: (§1) The inventors also examined the ability of 19 BQAs to inhibit the growth of human pancreatic cancer cell lines (FIG. 16). For growth inhibition studies (MTT) cells were treated with drugs for 4 hr and then allowed to grow for 72 h. For biomarker studies MiaPaCa2 cells were treated with DMAG analogs (5 μM) for 24 hr. 19 BQAs inhibit the growth of human pancreatic cancer cell lines (FIG. 16A, 16B) and induce biomarkers of Hsp90 inhibition (FIG. 16C) using isogenic Panc-1 (NQO1 null) and Panc-1/C5 (NQO1 expressing) cell lines.

[4] = tested on: Hsp90 (Raf-1, AKT degradation and Hsp70 induction); experiment: Biomarkers of Hsp90 inhibition in MDA468/NQ16 cells; type: cell-based, human; conditions: MDA468/NQ16 (high NQO1) cells
Protocol: (§2) The ability of 19-substituted BQAs to induce growth inhibition was measured by MTT in isogenic MDA468 (null NQO1) and MDA468/NQ16 (high NQO1) cells. […] Biomarkers of Hsp90 inhibition (Raf-1, AKT degradation and Hsp70 induction) were more pronounced in MDA468/NQ16 cells compared to MDA468 cells following treatment with 19-substituted DMAG analogs.

[5] = tested on: MDA468/NQ16 breast cancer cells; experiment: MTT growth inhibition in isogenic MDA468/NQ16 and MDA468 cells; type: cell-based, human; conditions: MDA468/NQ16, 4 hours treatment, 72 h growth, MTT
Protocol: The 19-substituted benzoquinone ansamycins were also tested in vitro for their ability to inhibit growth similar to DMAG in human breast cancer cells (FIG. 10). MDA468/NQ16 breast cancer cells were treated with 19-substituted DMAG analogs for 4 hours, after which drug-containing media was removed and cells were allowed to grow for an additional 72 h. Cell viability was determined using the MTT assay.
as §2

[6] = tested on: SHSY-5Y cells; experiment: MTT growth inhibition assay in SHSY-5Y dopaminergic cells; type: cell-based, human; conditions: Homo sapiens, SH-SY5Y, read-out: SHSY-5Y IC50
Protocol: The 19-substituted benzoquinone ansamycins were also tested in vitro for their ability to reduce the toxicity of BQAs to SH-SY5Y cells a dopaminergic model system of relevance to neurodegenerative disease. Referring to FIG. 9, toxicity of BQAs in SH-SY-5Y cells was measured using trypan blue exclusion (panel A), MTT growth inhibition assay (panel B) and annexin V/PI staining for apoptosis (panel C). Cells in A and C were treated with BQAs (5 μM) for 16 h; cells in B were treated with BQAs for 4 h then allowed to grow in drug-free medium for 72 h. […] The combination of these two properties are likely to be important to the neuroprotective properties of the 19-substituted BQAs.
Growth inhibition assays (MTT) were conducted in human SHSY-5Y cells following a 4 hr treatment with GA or 19Me-GA. Cell were allowed to grow for 72 hrs following drug treatment. The 19-methyl substituted compounds in all series were minimally toxic (see FIG. 12 for data with geldanamycin, MTT assay, results are expressed as the mean±SD, n=3).

[7] = tested on: BT474 human breast cancer cells; experiment: MTT growth inhibition in BT474 cells; type: cell-based; conditions: BT474, 4 hr treatment, MTT 72 h later
Protocol: (§3) The inventors extended the studies with 19-substituted DMAG analogs to include the Her2^+ human breast cancer cell line BT474 (FIG. 15). Growth inhibition (FIG. 15, left panel) was measured in BT474 cells following treatment with analogs for 4 hr. Growth inhibition (MTT) was performed 72 h following drug treatments. Biomarkers of Hsp90 inhibition, Raf-1, AKT, CDK4 and Her2 degradation as well as Hsp70 induction were measured by immunoblot analysis in human BT474 breast cancer cells following treatment with 19-substituted DMAG analogs (5 μM) for 24 hr ([…], left panel).

[8] = tested on: p23/Hsp90 interaction; experiment: Immunoprecipitation of p23 and Hsp90 in BT474 cells; type: cell-based, human; conditions: 5 μM, 24 hr
Protocol: Forward and reverse immunoprecipitation studies were performed in BT474 cells treated with DMAG analogs (5 μM) for 24 hr.

[9] = tested on: MiaPaCa2 human pancreatic cancer cells; experiment: MTT growth inhibition in MiaPaCa2 cells; type: cell-based
Protocol: as §1

[10] = tested on: human pancreatic cancer cell lines (Panc-1, Panc-1/C5); experiment: MTT growth inhibition in human pancreatic cancer cell lines; type: cell-based
Protocol: as §1

[11] = tested on: Hsp90 (Raf-1, AKT, CDK4, Her2 degradation, Hsp70 induction); experiment: Immunoblot biomarkers of Hsp90 inhibition in BT474 cells; type: cell-based, human; conditions: cell line not given
Protocol: as §3

[12] = tested on: cdc37/Hsp90 interaction; experiment: Immunoprecipitation of cdc37 with Hsp90 in BT474 and MDA468/NQ16 cells; type: cell-based, human; conditions: 5 μM, 24 hr
Protocol: Similarly, the association of cdc37 with hsp90 was examined in BT474 cells and MDA468/NQ16 cells by immunoprecipitation following treated with analogs (5 μM) for 24 hr. […] This finding is consistent with X ray data using purified Hsp90 showing that the larger 19-phenyl substituent causes greater conformational change in the Hsp90 structure than smaller 19-substituents (not shown). This also correlates with the differential effect of 19-phenyl and 19-methyl DMAG on clients chaperoned by cdc37 to Hsp90 which include Raf1, Akt, cdc2 and cdk4 (FIGS. 8,9,10).

[13] = molecular target: purified human NQO1 (Homo sapiens, UniProt P15559); experiment: Reduction by purified recombinant human NQO1 (HPLC); type: biochemical; conditions: 50 μM, NADH 200 μM, rhNQO1 5 μg, 15 min; blocked by ES936
Sequence of purified human NQO1 (P15559 whole entry): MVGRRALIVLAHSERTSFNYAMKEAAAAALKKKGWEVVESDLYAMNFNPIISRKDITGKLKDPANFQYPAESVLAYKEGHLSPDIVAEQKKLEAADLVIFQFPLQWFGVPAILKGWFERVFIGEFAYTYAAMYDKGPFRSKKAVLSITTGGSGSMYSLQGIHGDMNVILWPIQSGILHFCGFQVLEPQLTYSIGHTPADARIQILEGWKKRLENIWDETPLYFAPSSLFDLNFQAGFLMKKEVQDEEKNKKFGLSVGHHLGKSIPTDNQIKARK
Protocol: To confirm bioreduction by NQO1 19Ph-GA was incubated with purified human NQO1 and analyzed by HPLC. […] Reactions with purified rhNQO1 (FIG. 14, panels A and B): 19Ph-GA (50 μM) was incubated with NADH (200 μM) in the absence and presence of purified rhNQO1 (5 μg). After 15 min reactions were stopped and analyzed by HPLC. Panel A; chromatograph overlays of 19Ph-GA, NADH (black) and 19Ph-GA, NADH and NQO1 (red). […] Panel B; chromatograph of 19Ph-GA, NADH, NQO1 and ES936. No 19Ph-GA hydroquinone formation is observed in the presence of the NQO1 inhibitor ES936.

Sequence of yeast Hsp90 ATPase (P02829 whole entry): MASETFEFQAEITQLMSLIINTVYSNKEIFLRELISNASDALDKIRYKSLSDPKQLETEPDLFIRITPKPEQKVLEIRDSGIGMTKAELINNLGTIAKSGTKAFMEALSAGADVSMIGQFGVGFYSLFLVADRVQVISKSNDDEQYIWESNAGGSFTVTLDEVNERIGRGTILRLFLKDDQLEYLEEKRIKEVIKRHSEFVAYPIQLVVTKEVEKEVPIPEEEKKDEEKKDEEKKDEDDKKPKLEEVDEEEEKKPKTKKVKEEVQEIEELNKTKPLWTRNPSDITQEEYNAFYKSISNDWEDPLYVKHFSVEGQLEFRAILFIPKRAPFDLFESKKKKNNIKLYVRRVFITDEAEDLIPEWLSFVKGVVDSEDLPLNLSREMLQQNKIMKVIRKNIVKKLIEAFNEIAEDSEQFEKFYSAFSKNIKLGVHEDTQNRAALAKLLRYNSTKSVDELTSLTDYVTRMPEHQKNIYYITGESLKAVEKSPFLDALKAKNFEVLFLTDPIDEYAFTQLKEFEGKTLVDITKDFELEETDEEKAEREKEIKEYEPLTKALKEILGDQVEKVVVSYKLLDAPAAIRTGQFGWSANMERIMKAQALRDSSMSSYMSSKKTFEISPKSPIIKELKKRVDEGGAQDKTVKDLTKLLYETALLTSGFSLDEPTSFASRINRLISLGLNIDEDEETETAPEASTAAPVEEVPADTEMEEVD

Row | Compound | inhibition of Hsp90 ATPase activity [1] | hepatotoxicity [2] | induction of biomarkers of Hsp90 inhibition [3] | Hsp70 induction [4] | Raf-1 and AKT degradation [4] | potency at killing breast cancer cells relative to DMAG [5] | IC50 [6] [µM] | growth inhibition [7] | interaction of p23 and Hsp90 [8] | IC50 ([9]; Homo sapiens, MIA PaCa-2, read-out: IC50 MiaPaCa2) [µM] | potency relative to 19Me-DMAG, growth inhibition ([9]; MiaPaCa2 cells) | sensitivity of Panc-1/C5 (high NQO1) relative to NQO1-null Panc-1 cells ([10]; FIG. 16B) | growth inhibitory activity ([10]; human pancreatic cancer cell lines, 4 hr treatment, 72 h growth, MTT (FIG. 16A)) | effects on clients chaperoned by cdc37 to Hsp90 (Raf1, Akt, cdc2, cdk4) [11] | interaction of cdc37 with Hsp90 [12] | reduction to hydroquinone by NQO1 [13]
1 | C=CCNc1c(O)cc2c(O)c1C[C@@H](C)C[C@H](OC)[C@H](O)[C@@H](C)/C=C(\C)[C@H](OC(N)=O)[C@@H](OC)/C=C\C=C(/C)C(=O)N2 [17AAG hydroquinone] | inhibition of yeast Hsp90 ATPase activity |  |  |  |  |  |  |  |  |  |  |  |  |  |  | 
2 | CO[C@H]1/C=C\C=C(/C)C(=O)NC2=C(c3ccccc3)C(=O)C(NCCN(C)C)=C(C[C@@H](C)C[C@H](OC)[C@H](O)[C@@H](C)/C=C(\C)[C@@H]1OC(N)=O)C2=O [19Ph-DMAG, (4E,6Z,8S,9S,10E,12S,13R,14S,16R)-19-(2-(Dimethylamino)ethylamino)-13-hydroxy-8,14-dimethoxy-4,10,12,16-tetramethyl-3,20,22-trioxo-21-phenyl-2-azabicyclo[16.3.1]docosa-1 (21),4,6,10,18-pentaen-9-yl carbamate] |  | no toxicity was observed | pronounced induction of biomarkers of Hsp90 inhibition | equal Hsp70 induction compared to DMAG | more pronounced Raf-1 and AKT degradation | greater potency at killing breast cancer cells than DMAG | > 20 | induced growth inhibition | disrupted the interaction of p23 and Hsp90 | 3 ± 0.6 | greater than 10 fold | more sensitive | marked growth inhibitory activity | marked | disrupted the interaction of cdc37 with Hsp90 | 
3 | COC1=C2C[C@@H](C)C[C@H](OC)[C@H](O)[C@@H](C)/C=C(\C)[C@H](OC(N)=O)[C@@H](OC)/C=C\C=C(/C)C(=O)NC(=C(c3ccccc3)C1=O)C2=O [19Ph-GA, 19-phenylgeldanamycin] |  |  |  |  |  |  | > 10 |  |  |  |  |  |  |  |  | reduced to the more polar 19Ph-GA hydroquinone
